Paper PMC4503722, “Novel Phenotypic Outcomes Identified for a Public Collection of Approved Drugs from a Publicly Accessible Panel of Assays” (PLoS ONE, 2015)
Read-outs that look alike come from different tables or passages of the source.

Key:
NCI-H716 cells = assay: cells; assay type: cell-based, Human
hKDR = biological target: T1, hKDR (Homo sapiens, UniProt P35968); assay: Cerep LANCE kinase assay hKDR (S1 assay 32); assay type: biochemical; conditions: assay number 32
T1 construct: purchased Cerep (LANCE kinase assay platform, contract assay)
T1 sequence (P35968 20-1356): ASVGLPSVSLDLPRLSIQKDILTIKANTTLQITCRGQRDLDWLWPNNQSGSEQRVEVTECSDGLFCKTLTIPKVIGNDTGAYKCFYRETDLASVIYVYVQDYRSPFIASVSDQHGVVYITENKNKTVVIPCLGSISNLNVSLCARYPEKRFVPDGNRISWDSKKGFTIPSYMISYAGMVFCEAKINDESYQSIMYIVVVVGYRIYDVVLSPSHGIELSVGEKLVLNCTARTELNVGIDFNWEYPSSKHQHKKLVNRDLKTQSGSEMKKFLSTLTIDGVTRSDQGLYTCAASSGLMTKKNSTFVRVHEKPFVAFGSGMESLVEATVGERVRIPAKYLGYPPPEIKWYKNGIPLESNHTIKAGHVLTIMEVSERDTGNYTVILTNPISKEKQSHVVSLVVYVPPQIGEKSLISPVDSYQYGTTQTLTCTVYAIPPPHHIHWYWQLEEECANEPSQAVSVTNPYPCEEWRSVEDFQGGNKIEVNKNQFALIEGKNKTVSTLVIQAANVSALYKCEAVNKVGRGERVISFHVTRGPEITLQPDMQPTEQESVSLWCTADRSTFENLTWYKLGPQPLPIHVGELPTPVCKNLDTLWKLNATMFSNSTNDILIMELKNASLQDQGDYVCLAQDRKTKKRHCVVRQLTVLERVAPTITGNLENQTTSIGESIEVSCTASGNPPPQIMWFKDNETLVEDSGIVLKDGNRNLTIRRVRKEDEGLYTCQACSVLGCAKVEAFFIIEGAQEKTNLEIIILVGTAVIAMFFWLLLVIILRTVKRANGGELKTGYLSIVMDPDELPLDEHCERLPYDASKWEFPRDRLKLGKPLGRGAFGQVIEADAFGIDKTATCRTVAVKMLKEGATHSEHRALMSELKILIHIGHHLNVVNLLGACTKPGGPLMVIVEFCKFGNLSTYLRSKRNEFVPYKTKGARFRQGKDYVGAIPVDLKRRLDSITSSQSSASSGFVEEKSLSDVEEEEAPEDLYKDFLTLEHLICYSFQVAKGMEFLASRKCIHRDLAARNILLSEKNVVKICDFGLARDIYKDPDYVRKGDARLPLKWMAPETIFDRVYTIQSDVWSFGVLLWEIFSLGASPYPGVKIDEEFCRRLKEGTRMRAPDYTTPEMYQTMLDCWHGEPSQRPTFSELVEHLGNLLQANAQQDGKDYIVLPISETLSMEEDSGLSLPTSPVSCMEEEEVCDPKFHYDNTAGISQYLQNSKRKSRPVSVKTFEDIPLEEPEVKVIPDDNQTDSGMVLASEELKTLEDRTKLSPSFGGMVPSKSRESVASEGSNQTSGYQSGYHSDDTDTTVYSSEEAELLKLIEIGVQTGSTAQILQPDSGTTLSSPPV

hJAK2 = biological target: T2, hJAK2 (Homo sapiens, UniProt O60674); assay: Cerep LANCE kinase assay hJAK2 (S1 assay 33); assay type: biochemical; conditions: assay number 33
T2 construct: purchased Cerep (LANCE kinase assay platform, contract assay)
T2 sequence (O60674 whole entry): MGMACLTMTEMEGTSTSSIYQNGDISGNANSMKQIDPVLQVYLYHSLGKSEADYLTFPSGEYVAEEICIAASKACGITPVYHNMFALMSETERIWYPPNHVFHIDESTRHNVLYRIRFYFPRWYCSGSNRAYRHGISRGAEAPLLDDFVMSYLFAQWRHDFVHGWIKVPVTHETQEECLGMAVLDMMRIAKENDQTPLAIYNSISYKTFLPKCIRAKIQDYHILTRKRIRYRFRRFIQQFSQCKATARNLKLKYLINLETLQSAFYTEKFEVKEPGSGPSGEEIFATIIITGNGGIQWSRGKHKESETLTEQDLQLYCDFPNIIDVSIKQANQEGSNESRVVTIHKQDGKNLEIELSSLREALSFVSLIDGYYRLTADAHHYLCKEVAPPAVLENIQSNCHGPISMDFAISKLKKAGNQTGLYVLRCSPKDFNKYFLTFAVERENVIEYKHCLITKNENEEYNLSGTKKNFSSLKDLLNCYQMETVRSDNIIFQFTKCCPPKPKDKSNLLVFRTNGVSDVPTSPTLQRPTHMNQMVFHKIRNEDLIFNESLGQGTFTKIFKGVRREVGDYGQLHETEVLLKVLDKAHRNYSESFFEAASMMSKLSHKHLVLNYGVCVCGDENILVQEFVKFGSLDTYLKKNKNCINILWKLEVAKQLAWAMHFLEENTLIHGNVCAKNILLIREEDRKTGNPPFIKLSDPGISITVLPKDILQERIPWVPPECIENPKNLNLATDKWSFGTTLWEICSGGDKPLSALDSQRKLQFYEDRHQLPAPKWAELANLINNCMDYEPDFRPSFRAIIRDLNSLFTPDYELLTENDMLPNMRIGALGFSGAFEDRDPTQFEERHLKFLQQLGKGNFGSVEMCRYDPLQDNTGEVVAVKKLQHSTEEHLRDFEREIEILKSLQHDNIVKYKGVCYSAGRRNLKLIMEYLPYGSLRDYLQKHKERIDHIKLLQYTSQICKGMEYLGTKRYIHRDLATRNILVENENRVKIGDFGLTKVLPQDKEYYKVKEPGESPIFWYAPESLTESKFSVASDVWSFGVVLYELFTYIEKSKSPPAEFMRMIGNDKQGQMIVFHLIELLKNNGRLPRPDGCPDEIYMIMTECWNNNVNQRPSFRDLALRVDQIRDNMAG

STC-1 cell line = assay type: cell-based, mouse
hFLT3 = biological target: T3, hFLT3 (Homo sapiens, UniProt P36888); assay: Cerep LANCE kinase assay hFLT3 (S1 assay 35); assay type: biochemical; conditions: assay number 35
T3 construct: purchased Cerep (LANCE kinase assay platform, contract assay)
T3 sequence (P36888 27-993): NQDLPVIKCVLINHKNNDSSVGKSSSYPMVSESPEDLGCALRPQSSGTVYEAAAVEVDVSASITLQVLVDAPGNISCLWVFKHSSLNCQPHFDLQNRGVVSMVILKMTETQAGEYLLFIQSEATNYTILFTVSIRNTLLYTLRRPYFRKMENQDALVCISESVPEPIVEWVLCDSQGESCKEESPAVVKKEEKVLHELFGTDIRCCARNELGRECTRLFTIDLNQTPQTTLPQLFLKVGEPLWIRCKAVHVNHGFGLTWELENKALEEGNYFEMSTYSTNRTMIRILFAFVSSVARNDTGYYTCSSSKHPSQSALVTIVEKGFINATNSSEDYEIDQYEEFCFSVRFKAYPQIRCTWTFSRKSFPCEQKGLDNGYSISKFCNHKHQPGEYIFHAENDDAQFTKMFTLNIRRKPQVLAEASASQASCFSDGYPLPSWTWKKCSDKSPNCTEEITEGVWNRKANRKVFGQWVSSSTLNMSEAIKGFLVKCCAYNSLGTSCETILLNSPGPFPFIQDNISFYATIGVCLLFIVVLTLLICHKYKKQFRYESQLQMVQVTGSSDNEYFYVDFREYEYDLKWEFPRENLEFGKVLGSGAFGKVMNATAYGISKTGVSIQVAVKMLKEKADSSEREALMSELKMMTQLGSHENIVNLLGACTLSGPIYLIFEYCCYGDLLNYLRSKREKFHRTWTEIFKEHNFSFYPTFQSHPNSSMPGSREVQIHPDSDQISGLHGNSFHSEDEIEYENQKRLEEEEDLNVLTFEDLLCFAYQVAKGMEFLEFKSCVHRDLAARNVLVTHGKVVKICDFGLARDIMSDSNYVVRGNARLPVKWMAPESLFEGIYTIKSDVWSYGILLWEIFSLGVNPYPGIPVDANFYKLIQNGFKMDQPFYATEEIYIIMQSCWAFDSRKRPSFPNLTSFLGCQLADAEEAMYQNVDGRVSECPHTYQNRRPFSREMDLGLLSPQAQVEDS

hp70S6K1 (RPS6KB1) = biological target: T4, hp70S6K1 (RPS6KB1) (Homo sapiens, UniProt P23443); assay: Cerep LANCE kinase assay hp70S6K1 (S1 assay 31); assay type: biochemical; conditions: assay number 31
T4 construct: purchased Cerep (LANCE kinase assay platform, contract assay)
T4 sequence (P23443 whole entry): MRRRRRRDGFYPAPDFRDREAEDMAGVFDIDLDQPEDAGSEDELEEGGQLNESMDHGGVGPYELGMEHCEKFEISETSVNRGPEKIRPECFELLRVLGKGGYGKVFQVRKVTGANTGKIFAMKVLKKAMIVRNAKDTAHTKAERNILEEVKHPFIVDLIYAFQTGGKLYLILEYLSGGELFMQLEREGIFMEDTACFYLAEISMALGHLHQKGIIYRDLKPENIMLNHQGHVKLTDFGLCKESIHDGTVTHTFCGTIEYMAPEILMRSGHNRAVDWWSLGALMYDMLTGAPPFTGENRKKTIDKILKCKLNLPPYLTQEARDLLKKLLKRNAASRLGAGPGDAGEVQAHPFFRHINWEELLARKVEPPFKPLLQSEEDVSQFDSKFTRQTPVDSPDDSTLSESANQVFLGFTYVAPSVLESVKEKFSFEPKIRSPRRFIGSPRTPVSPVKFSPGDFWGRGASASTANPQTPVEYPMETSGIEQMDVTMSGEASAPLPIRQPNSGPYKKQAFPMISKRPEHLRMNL

[1] = tested on: endothelial tube formation in co-cultures of ECFCs and ADSCs treated with VEGF; assay: cells; assay type: cell-based, human
INS-1E cells = assay: cells; assay type: cell-based, rat;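 further: secreted insulin quantified by homogeneous immunoassay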
HeLa cells = assay: cells; assay type: cell-based
[2] = tested on: ECFC/ADSC co-culture cell nuclei number
hGSK3b = biological target: T5, hGSK3b (Homo sapiens, UniProt P49841); assay: Cerep LANCE kinase assay hGSK3b (S1 assay 34); assay type: biochemical; conditions: assay number 34
T5 construct: purchased Cerep (LANCE kinase assay platform, contract assay)
T5 sequence (P49841 whole entry): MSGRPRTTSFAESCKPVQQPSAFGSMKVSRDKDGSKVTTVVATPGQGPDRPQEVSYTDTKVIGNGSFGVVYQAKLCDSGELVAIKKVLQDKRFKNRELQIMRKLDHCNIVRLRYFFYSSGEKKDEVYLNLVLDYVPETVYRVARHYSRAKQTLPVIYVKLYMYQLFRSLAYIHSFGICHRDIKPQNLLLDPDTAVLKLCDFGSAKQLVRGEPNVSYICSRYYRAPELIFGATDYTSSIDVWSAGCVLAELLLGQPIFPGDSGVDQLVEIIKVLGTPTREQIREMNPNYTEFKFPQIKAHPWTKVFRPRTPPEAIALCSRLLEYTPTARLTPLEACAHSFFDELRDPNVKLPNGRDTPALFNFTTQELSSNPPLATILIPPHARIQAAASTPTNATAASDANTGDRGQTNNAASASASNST

DLD-1 = assay: cells; assay type: cell-based
SW480 = assay: cells; assay type: cell-based
SNU-C1 = assay: cells; assay type: cell-based
HT-29 = assay: cells; assay type: cell-based
Colo320 = assay: cells; assay type: cell-based
HCT116 = assay: cells; assay type: cell-based
RKO = assay: cells; assay type: cell-based
[3] = tested on: HCT116 cells treated with a GSK3β inhibitor; assay: cells; assay type: cell-based

Structure (SMILES): CCCCCCCCCCCCCCCCCCNC(=O)OC1CCN(C(=O)OC[C@H](COC(=O)N(Cc2cccc[n+]2CC)C(=O)c2ccccc2OC)OC)CC1.[Cl-] [NCGC00183020-01]
- hNCI-H716 GLP1 Secretion IC50/EC50 (NCI-H716 cells; assay number 12): 9.522 µM
- hKDR LANCE IC50/EC50 (hKDR): > 20 µM
- hJAK2 LANCE IC50/EC50 (hJAK2): > 20 µM
- mSTC-1 GLP1 Secretion IC50/EC50 (STC-1 cell line; assay number 13): 13.8183 µM
- hFLT3 LANCE IC50/EC50 (hFLT3): > 20 µM
- hp70S6K1 LANCE IC50/EC50 (hp70S6K1 (RPS6KB1)): > 20 µM
- VEGF_ADSC\ECFC Angio CD31 TubeArea IC50/EC50 [1]: 1.4957 µM
- 5mMGluc_INS1E SecretionMod IC50/EC50 (INS-1E cells; assay number 8, 5 mM glucose): 21.7337 µM
- Hela CellCycMod PI 2N IC50/EC50 (HeLa cells; assay number 14, 2N): > 10 µM
- Hela CellCycMod PI 4N IC50/EC50 (HeLa cells; assay number 16, 4N): > 10 µM
- Hela CellCycMod PI MI IC50/EC50 (HeLa cells; assay number 17, MI): > 10 µM
- Hela CellCycMod PI Cell Number IC50/EC50 (HeLa cells; assay number 18, cell number): 6.1389 µM
- VEGF_ADSC\ECFC Angio Hoechst NucArea IC50/EC50 [2]: > 10 µM
- hGSK3b LANCE IC50/EC50 (hGSK3b): > 20 µM

Structure (SMILES): CC(COc1ccccc1)NN (stereo not drawn) [NCGC00183828-01]
- hNCI-H716 GLP1 Secretion IC50/EC50 (NCI-H716 cells; assay number 12): > 40 µM
- mSTC-1 GLP1 Secretion IC50/EC50 (STC-1 cell line; assay number 13): 27.1817 µM
- VEGF_ADSC\ECFC Angio CD31 TubeArea IC50/EC50 [1]: > 10 µM
- 5mMGluc_INS1E SecretionMod IC50/EC50 (INS-1E cells; assay number 8, 5 mM glucose): > 33.33 µM
- VEGF_ADSC\ECFC Angio Hoechst NucArea IC50/EC50 [2]: > 10 µM

Structure (SMILES): Cn1cc([S+](C)[O-])c(=O)c2ccc(F)cc21 (stereo not drawn) [NCGC00183849-01]
- hNCI-H716 GLP1 Secretion IC50/EC50 (NCI-H716 cells; assay number 12): > 40 µM
- mSTC-1 GLP1 Secretion IC50/EC50 (STC-1 cell line; assay number 13): > 40 µM
- VEGF_ADSC\ECFC Angio CD31 TubeArea IC50/EC50 [1]: > 10 µM
- 5mMGluc_INS1E SecretionMod IC50/EC50 (INS-1E cells; assay number 8, 5 mM glucose): > 33.33 µM
- VEGF_ADSC\ECFC Angio Hoechst NucArea IC50/EC50 [2]: > 10 µM

Structure (SMILES): COC(=O)C(Cl)C(=O)OC [NCGC00249607-02]
- hNCI-H716 GLP1 Secretion IC50/EC50 (NCI-H716 cells; assay number 12): > 40 µM
- mSTC-1 GLP1 Secretion IC50/EC50 (STC-1 cell line; assay number 13): 8.3651 µM
- VEGF_ADSC\ECFC Angio CD31 TubeArea IC50/EC50 [1]: > 10 µM
- 5mMGluc_INS1E SecretionMod IC50/EC50 (INS-1E cells; assay number 8, 5 mM glucose): > 33.33 µM
- VEGF_ADSC\ECFC Angio Hoechst NucArea IC50/EC50 [2]: > 10 µM

Structure (SMILES): NC(=O)C1(N2CCCCC2)CCN(CCCN2c3ccccc3CCc3ccc(Cl)cc32)CC1 [NCGC00253595-01]
- hNCI-H716 GLP1 Secretion IC50/EC50 (NCI-H716 cells; assay number 12): 18.348 µM
- mSTC-1 GLP1 Secretion IC50/EC50 (STC-1 cell line; assay number 13): > 40 µM
- VEGF_ADSC\ECFC Angio CD31 TubeArea IC50/EC50 [1]: 3.4001 µM
- 5mMGluc_INS1E SecretionMod IC50/EC50 (INS-1E cells; assay number 8, 5 mM glucose): 10.0823 µM
- VEGF_ADSC\ECFC Angio Hoechst NucArea IC50/EC50 [2]: > 10 µM

Structure (SMILES): Cc1c(N)cccc1C(F)(F)F [NCGC00253636-01]
- hNCI-H716 GLP1 Secretion IC50/EC50 (NCI-H716 cells; assay number 12): > 40 µM
- mSTC-1 GLP1 Secretion IC50/EC50 (STC-1 cell line; assay number 13): > 40 µM
- VEGF_ADSC\ECFC Angio CD31 TubeArea IC50/EC50 [1]: > 10 µM
- 5mMGluc_INS1E SecretionMod IC50/EC50 (INS-1E cells; assay number 8, 5 mM glucose): > 33.33 µM
- VEGF_ADSC\ECFC Angio Hoechst NucArea IC50/EC50 [2]: > 10 µM

Structure (SMILES): Fc1cc(Br)ccc1CBr [NCGC00253679-01]
- hNCI-H716 GLP1 Secretion IC50/EC50 (NCI-H716 cells; assay number 12): > 40 µM
- mSTC-1 GLP1 Secretion IC50/EC50 (STC-1 cell line; assay number 13): > 40 µM
- 5mMGluc_INS1E SecretionMod IC50/EC50 (INS-1E cells; assay number 8, 5 mM glucose): > 33.33 µM

Structure (SMILES): O=C(CBr)Nc1ccc(Cl)cc1C(=O)c1ccccc1F [NCGC00253724-01]
- hNCI-H716 GLP1 Secretion IC50/EC50 (NCI-H716 cells; assay number 12): > 40 µM
- mSTC-1 GLP1 Secretion IC50/EC50 (STC-1 cell line; assay number 13): > 40 µM
- VEGF_ADSC\ECFC Angio CD31 TubeArea IC50/EC50 [1]: > 10 µM
- 5mMGluc_INS1E SecretionMod IC50/EC50 (INS-1E cells; assay number 8, 5 mM glucose): > 33.33 µM
- VEGF_ADSC\ECFC Angio Hoechst NucArea IC50/EC50 [2]: > 10 µM

Structure (SMILES): CC(C)CCCC(C)NCCC(C)C (stereo not drawn) [NCGC00261980-01]
- hNCI-H716 GLP1 Secretion IC50/EC50 (NCI-H716 cells; assay number 12): > 40 µM
- mSTC-1 GLP1 Secretion IC50/EC50 (STC-1 cell line; assay number 13): > 40 µM
- VEGF_ADSC\ECFC Angio CD31 TubeArea IC50/EC50 [1]: > 10 µM
- 5mMGluc_INS1E SecretionMod IC50/EC50 (INS-1E cells; assay number 8, 5 mM glucose): > 33.33 µM
- VEGF_ADSC\ECFC Angio Hoechst NucArea IC50/EC50 [2]: > 10 µM

Structure (SMILES): CN1CCCC(CC2c3ccccc3Sc3ccccc32)C1.Cl (stereo not drawn) [NCGC00273481-01]
- Basal_Viability ATP DLD-1 IC50/EC50 (DLD-1): > 20 µM
- hNCI-H716 GLP1 Secretion IC50/EC50 (NCI-H716 cells): > 40 µM
- Basal_Viability ATP SW480 IC50/EC50 (SW480): 4.7038 µM
- Basal_Viability ATP SNU-C1 IC50/EC50 (SNU-C1): 15.0863 µM
- Basal_Viability ATP HT-29 IC50/EC50 (HT-29): 6.4328 µM
- mSTC-1 GLP1 Secretion IC50/EC50 (STC-1 cell line): > 40 µM
- VEGF_ADSC\ECFC Angio CD31 TubeArea IC50/EC50 [1]: 8.6842 µM
- 5mMGluc_INS1E SecretionMod IC50/EC50 (INS-1E cells): > 11.11 µM
- Basal_Viability ATP Colo 320 IC50/EC50 (Colo320): > 20 µM
- Hela CellCycMod PI 2N IC50/EC50 (HeLa cells): > 10 µM
- Hela CellCycMod PI 4N IC50/EC50 (HeLa cells): > 10 µM
- Hela CellCycMod PI Cell Number IC50/EC50 (HeLa cells): > 10 µM
- Hela CellCycMod PI MI IC50/EC50 (HeLa cells): > 10 µM
- Basal_Viability ATP HCT116 IC50/EC50 (HCT116): > 20 µM
- VEGF_ADSC\ECFC Angio Hoechst NucArea IC50/EC50 [2]: > 10 µM
- Basal_Viability ATP RKO IC50/EC50 (RKO): 3.4891 µM
- GSK3b inh pretreated_Viability ATP HCT116 IC50/EC50 [3]: 8.6816 µM
